Test results published in paper PMC10788941, “Solubilizer Tag Effect on PD-L1/Inhibitor Binding Properties for m-Terphenyl Derivatives” (ACS Medicinal Chemistry Letters, 2023).

Columns and labels:
[1] = target: T1, PD-1/PD-L1 complex (hPD-1, hPD-L1) (Homo sapiens, UniProt Q9NZQ7); assay: HTRF assay of PD-1/PD-L1 complex disruption (Cis-Bio kit); format: binding; conditions: disruption of PD-1/PD-L1 complex, n = 2
T1 construct: purchased Cis-Bio
Excerpt: 4.3. Homogenous Time-Resolved Fluorescence
HTRF (Homogeneous Time Resolved Fluorescence) is a widely used technology for homogenous analyte measurement, particularly in high-throughput screening for drug target studies.
This technology combines fluorescence resonance energy transfer (FRET) with tim e-resolved measurement. In TR-FRET assays, a signal is generated when a donor and an acceptor molecule are in proximity (so-called FRET distance), transfer energy through FRET. Both fluorophores are attached to the monoclonal antibodies that are then specifically detecting particular tags on target proteins.
The commercially available Cis-Bio assay kit was used to perform the HTRF assay. Following the standard protocol, the measurement was carried out at a 20 µL final volume with a 5 nM concentration of hPD-1 and 50 nM concentration of hPD-L1 in the final formulation. Separate dilution […]
compounds. Analyte and detection reagents (anti-analyte conjugated donor and acceptor conjugated […]
plate was left for 1 h of incubation and it was read on an HTRF certified microplate reader Tecan Spark
20M. Output data were subjected to background subtraction on negative control (no PD-1), and normalization in correlation to the positive control (no inhibitor) and averaged. Resulting data points were then fitted with Hill’s equation to generate IC50 using Mathematica 12. […]

[2] = target: T2, PD-1/PD-L1 immune checkpoint (Homo sapiens, UniProt Q9NZQ7); assay: cell-based PD-1/PD-L1 immune checkpoint blockade (ICB) assay, Jurkat-ECs with CHO/TCRAct/PD-L1 cells, luciferase readout; conditions: for activation of Jurkat-ECs (fold induction): relative to DMSO-treated cells; for dose-dependent activation of Jurkat-ECs and toxicity: different concentrations, Figure S1
T2 construct: host or cells: CHO/TCRAct/PD-L1 cells (PD-L1); Jurkat-ECs (PD-1)
T2 sequence (Q9NZQ7 19-290): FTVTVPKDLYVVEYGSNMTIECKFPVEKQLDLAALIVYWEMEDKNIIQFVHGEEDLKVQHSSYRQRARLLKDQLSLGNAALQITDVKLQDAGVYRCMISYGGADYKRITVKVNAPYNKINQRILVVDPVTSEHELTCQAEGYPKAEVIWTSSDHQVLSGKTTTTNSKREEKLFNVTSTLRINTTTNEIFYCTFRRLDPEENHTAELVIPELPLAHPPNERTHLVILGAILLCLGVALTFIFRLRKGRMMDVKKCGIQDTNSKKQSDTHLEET
Method: 4.4. PD-1/PD-L1 immune checkpoint blockade (ICB) assay
For the in vitro analysis of the bioactivity of the molecules an Immune Checkpoint Blockade assay was performed 4 CHO/TCRAct/PD -L1 cells (Promega), overexpressing an artificial TCR - activator construct and PD -L1, were seeded on 96 -well white plates at the density of 10 000 cells/well.
The next day, the cells were overlaid with the effector Jurkat T cells (Jurkat -ECs, Promega, 20 000 cells/well), overexpressing PD -1 and containing construct assuring an NFAT -induced expression of luciferase, either in the presence of the indicated concentrations of the compounds with DMSO -only as a control (the concentration of DMSO was kept constant at 0.1%) or durvalumab (Selleckchem), as a positive control, with untreated cells as controls. Activation of the Jurkat -ECs, reflected by luciferase activity, was monitored by luminescence measurements after 6 h of incubation (37°C, 5%CO 2), and […]
20 min of additional incubation with the Bio-GloTM Assay reagent (Promega) at room temperature.
The luminescence was read on the Spark microplate reader (Tecan). The data is presented as fold induction of the luminescence signal relative to either untreated (for durvalumab) or DMSO-treated (for compounds) cells. Data points represent mean ± SD values from duplicates. […]
HCl, 0.25 mM oxidized glutathione, and 0.25 mM reduced glutathione. After the refolding step, the protein was dialyzed 3 times against buffer containing 10 mM Tris-HCl pH 8.0 and 20 mM NaCl. The final step of purification consisted of size exclusion chromatography using a Superdex 75 column and 10 mM Tris- HCl, 20 mM NaCl based buffer for crystallization or PBS buffer for NMR based experiments. The correctly folded state and purity of the PD-L1 protein were checked by NMR and […]
The freshly purified protein was concentrated to 5 mg/mL and then mixed in a 1:3 molar ratio with an excess of the 2f inhibitor, finally the solution was centrifuged for 1 minute at max speed. The clarified solution was then used for screening using multiple available commercial screens. The diffraction quality crystals were obtained from a sitting drop set up at room temperature with a buffer containing 27 % w/v PEG 3350, 0.1 M Bis-Tris propane, pH 7.0 and 0.2 M Lithium sulfate. Crystals were cryo-protected using glycerol and flash frozen with liquid nitrogen.
The X-ray diffraction data were collected at the BL13 - XALOC beamline at ALBA (Barcelona, Spain).6The data were indexed, integrated, and scaled using XDS, SCALE, and Aimless.
7–9 The initial phase estimates was obtained by molecular replacement calculated in Phaser using PDB:5C3T as a model.10 The refinement was performed using CCP4cloud11 and verified using Coot .12–14 The structure was deposited in the Protein Data Bank with accession number 8R6Q. The protein-ligand interactions were assessed using PLIP server15 and visualized using PyMol (The PyMOL Molecular Graphics System, Version 2.0 Schrödinger, LLC).
4.6. Crystal structure determination for compound 2a
X-ray diffraction data for single crystals of compound 2a was collected using XtalLAB Synergy-S four-circle diffractometer with a mirror monochromator and a microfocus CuKα radiation source (λ = 1.5418 Å). The CryoStream cryostat system was used to allow low-temperature

T1 sequence (Q9NZQ7 19-238 limits assumed, one chain of several): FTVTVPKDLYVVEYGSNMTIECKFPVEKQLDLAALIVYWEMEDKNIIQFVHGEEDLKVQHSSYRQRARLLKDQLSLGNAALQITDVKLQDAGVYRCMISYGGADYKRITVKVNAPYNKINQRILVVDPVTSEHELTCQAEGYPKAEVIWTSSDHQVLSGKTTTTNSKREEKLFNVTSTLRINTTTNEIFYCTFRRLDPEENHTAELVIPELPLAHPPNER

Structure (SMILES) | IC50 [1] [nM] | also measured
COc1cc(-c2cccc(-c3ccc4c(c3)OCCO4)c2Cl)ccc1CN1CCCCC1C(=O)NCCO (centres unmarked) [3f] | 0.9 ± 0.05 | 
COc1cc(-c2cccc(-c3ccc4c(c3)OCCO4)c2Cl)ccc1CN1CCCC1C(=O)NN(C)C (centres unmarked) [1d] | < 0.5 | 
COc1cc(-c2cccc(-c3ccc4c(c3)OCCO4)c2Cl)ccc1CN1CCCC1C(=O)NO (centres unmarked) [1b] | > 1000 | 
COc1cc(-c2cccc(-c3ccc4c(c3)OCCO4)c2Cl)ccc1CN1CCCC1C(=O)NCCO (centres unmarked) [1f] | < 0.5 | 
COc1cc(-c2cccc(-c3ccc4c(c3)OCCO4)c2Cl)ccc1CN1CCCC(C(=O)O)C1 (centres unmarked) [4a] | < 0.5 | 
COc1cc(-c2cccc(-c3ccc4c(c3)OCCO4)c2Cl)ccc1CN1CCC(C(=O)NC(CO)(CO)CO)C1 (centres unmarked) [2h] | < 0.5 | activation of Jurkat-ECs (fold induction) ([2]; compound 1 μM): bioactivity was observed; activation of Jurkat-ECs (fold induction) ([2]; compound 6.4 μM): T cell activation dropped down
COc1cc(-c2cccc(-c3ccc4c(c3)OCCO4)c2Cl)ccc1CN1CCC(C(=O)NCCN)C1 (centres unmarked) [2e] | 4.94 ± 0.37 | activation of Jurkat-ECs (fold induction) ([2]; compound 1 μM): bioactivity was observed; activation of Jurkat-ECs (fold induction) ([2]; compound 6.4 μM, 6.4 µM): T cell activation dropped down and tox.
COc1cc(-c2cccc(-c3ccc4c(c3)OCCO4)c2Cl)ccc1CN1CCC(C(=O)NO)C1 (centres unmarked) [2b] | 0.94 ± 0.01 | activation of Jurkat-ECs (fold induction) ([2]; compound 1 μM): bioactivity was observed
COc1cc(-c2cccc(-c3ccc4c(c3)OCCO4)c2Cl)ccc1CN1CCCC1C(=O)NN (centres unmarked) [1c] | 76.2 ± 2.35 | 
COc1cc(-c2cccc(-c3ccc4c(c3)OCCO4)c2Cl)ccc1CN1CCC(C(=O)NN(C)C)C1 (centres unmarked) [2d] | 12 ± 2.01 | activation of Jurkat-ECs (fold induction) ([2]; compound 6.4 μM): activity was retained; dose-dependent activation of Jurkat-ECs and toxicity [2]: highest dose-dependent activity and lowest toxicity
COc1cc(-c2cccc(-c3ccc4c(c3)OCCO4)c2Cl)ccc1CN1CCCCC1C(=O)NN(C)C (centres unmarked) [3d] | 56 ± 1.33 | 
COc1cc(-c2cccc(-c3ccc4c(c3)OCCO4)c2Cl)ccc1CN1CCCC1C(=O)NCCN (centres unmarked) [1e] | < 0.5 | 
COc1cc(-c2cccc(-c3ccc4c(c3)OCCO4)c2Cl)ccc1CN1CCCC1C(=O)O (centres unmarked) [1a] | < 0.5 | 
COc1cc(-c2cccc(-c3ccc4c(c3)OCCO4)c2Cl)ccc1CN1CCC(C(=O)NN)C1 (centres unmarked) [2c] | < 0.5 | 
COc1cc(-c2cccc(-c3ccc4c(c3)OCCO4)c2Cl)ccc1CN1CCC(C(=O)NCCO)C1 (centres unmarked) [2f] | < 0.5 | dose-dependent activation of Jurkat-ECs and toxicity [2]: highest dose-dependent activity and lowest toxicity
COc1cc(-c2cccc(-c3ccc4c(c3)OCCO4)c2Cl)ccc1CN1CCC(C(=O)NC(CO)CO)C1 (centres unmarked) [2g] | < 0.5 | activation of Jurkat-ECs (fold induction) ([2]; compound 1 μM): bioactivity was observed; activation of Jurkat-ECs (fold induction) ([2]; compound 6.4 μM): activity was retained; dose-dependent activation of Jurkat-ECs and toxicity [2]: highest dose-dependent activity and lowest toxicity
COc1cc(-c2cccc(-c3ccc4c(c3)OCCO4)c2Cl)ccc1CN1CCCC1C(=O)NC(CO)CO (centres unmarked) [1g] | < 0.5 | 
COc1cc(-c2cccc(-c3ccc4c(c3)OCCO4)c2Cl)ccc1CN1CCCCC1C(=O)NN (centres unmarked) [3c] | 16.7 ± 1.63 | 
COc1cc(-c2cccc(-c3ccc4c(c3)OCCO4)c2Cl)ccc1CN1CCCCC1C(=O)NC(CO)(CO)CO (centres unmarked) [3h] | 477 ± 83.5 | 
COc1cc(-c2cccc(-c3ccc4c(c3)OCCO4)c2Cl)ccc1CN1CCCCC1C(=O)O (centres unmarked) [3a] | 0.58 ± 0.05 | 
COc1cc(-c2cccc(-c3ccc4c(c3)OCCO4)c2Cl)ccc1CN1CCC(C(=O)O)C1 (centres unmarked) [2a] | 1.1 ± 0.07 | 
COc1cc(-c2cccc(-c3ccc4c(c3)OCCO4)c2Cl)ccc1CN1CCCC1C(=O)NC(CO)(CO)CO (centres unmarked) [1h] | < 0.5 | 
COc1cc(-c2cccc(-c3ccc4c(c3)OCCO4)c2Cl)ccc1CN1CCCCC1C(=O)NC(CO)CO (centres unmarked) [3g] | 63.6 ± 1.86 | 

Continued, in another order:

IC50 [1] [nM] | Structure (SMILES) | also measured
1.09 ± 0.07 | COc1cc(-c2cccc(-c3ccc4c(c3)OCCO4)c2Cl)ccc1CN1CCCC(C(=O)NO)C1 (centres unmarked) [4b] | 
< 0.5 | COc1cc(-c2cccc(-c3ccc4c(c3)OCCO4)c2Cl)ccc1CN1CCC(C(=O)NC(CO)CO)CC1 [5g] | 
96.5 ± 2.71 | COc1cc(-c2cccc(-c3ccc4c(c3)OCCO4)c2Cl)ccc1CN1CCC(C(=O)NN)CC1 [5c] | 
766 ± 71.5 | COc1cc(-c2cccc(-c3ccc4c(c3)OCCO4)c2Cl)ccc1CN1CCC(C(=O)NO)CC1 [5b] | 
< 0.5 | COc1cc(-c2cccc(-c3ccc4c(c3)OCCO4)c2Cl)ccc1CN1CCCC(C(=O)NCCO)C1 (centres unmarked) [4f] | 
37 ± 1.75 | COc1cc(-c2cccc(-c3ccc4c(c3)OCCO4)c2Cl)ccc1CN1CCCC(C(=O)NN(C)C)C1 (centres unmarked) [4d] | 
< 0.5 | COc1cc(-c2cccc(-c3ccc4c(c3)OCCO4)c2Cl)ccc1CN1CCC(C(=O)NC(CO)(CO)CO)CC1 [5h] | 
< 0.5 | COc1cc(-c2cccc(-c3ccc4c(c3)OCCO4)c2Cl)ccc1CN1CCC(C(=O)NN(C)C)CC1 [5d] | 
19.3 ± 1.22 | COc1cc(-c2cccc(-c3ccc4c(c3)OCCO4)c2Cl)ccc1CN1CCCC(C(=O)NC(CO)(CO)CO)C1 (centres unmarked) [4h] | 
< 0.5 | COc1cc(-c2cccc(-c3ccc4c(c3)OCCO4)c2Cl)ccc1CN1CCC(C(=O)NCCN)CC1 [5e] | 
79.9 ± 5.7 | COc1cc(-c2cccc(-c3ccc4c(c3)OCCO4)c2Cl)ccc1CN1CCCC(C(=O)NN)C1 (centres unmarked) [4c] | 
0.55 ± 0.03 | COc1cc(-c2cccc(-c3ccc4c(c3)OCCO4)c2Cl)ccc1CN1CCC(C(=O)NCCO)CC1 [5f] | 
< 0.5 | COc1cc(-c2cccc(-c3ccc4c(c3)OCCO4)c2Cl)ccc1CN1CCC(C(=O)O)CC1 [5a] | 
